Test results from PubChem BioAssay (NCI).
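Cultured in 96-well plates, cells were exposed to test compound for 48 hours across five concentrations. GI50 = concentration required for 50% inhibition of growth. Definition used: TGI = concentration required for complete inhibition of growth.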

What follows are compounds tested on TK-10 renal (assay: growth of human tumour cells (NCI), 48 h).
`Nc1ccc(SC23CC4CC(CC(C4)C2)C3)cc1` was tested, and the TGI was over 100 µM.

Each compound was assayed on SK-MEL-5 melanoma (assay: growth of human tumour cells (NCI), 48 h).
For `Cc1ccc([N+](=O)[O-])c2c(NCCCN(C)C)ccnc12`, the TGI was 72.8 µM.
Compound `FC(F)(F)c1ccc2c(Nc3cccc(C4CC(c5ccccc5)=NN4c4ccc(Cl)cc4)c3)ccnc2c1` (stereo not drawn) has a GI50 of 8.77 µM and a TGI of 26.5 µM.
Compound `COc1cc(-c2cn(C)c(=O)c(C)c2C)cc(OC)c1CN1CC[C@H](N2CCN(c3ccc(N[C@H]4CCC(=O)NC4=O)cc3F)CC2)C(F)(F)C1` has a GI50 of 4.64 µM and a TGI of 18.8 µM.
`CCCNCc1cc(C)cc2c1nc(N1CCNCC1)n2Cc1cc(C)c(F)c(C)c1` gave a GI50 of 1.75 µM and a TGI of 3.21 µM.
`CNC(=O)c1cn(C[C@H](F)CCc2ccc(NC(=O)Cc3cc(OC4CC(F)(F)C4)cc(C)n3)nn2)nn1` showed a GI50 of over 100 µM and a TGI of over 100 µM.
For `Cc1ccsc1C(=S)Nc1ccc(Cl)c(C(=O)OC(C(C)C)C(C)C)c1`, the TGI was 33 µM.
Work on `Cc1sc(C)c(-c2ccc(CO)o2)c1-c1ccc(CO)o1` yielded a GI50 of over 61.5 µM and a TGI of over 100 µM.
`CCCS(=O)(=O)c1nc(NC2CC2)cc(-c2ccc3c(ccn3C3CC(C)(C)NC(C)(C)C3)c2)n1` was tested, and the GI50 was 1.72 µM and the TGI was 3.15 µM.
With `Cc1ncc([N+](=O)[O-])n1CCNC(=O)CCCCn1ccnc1[N+](=O)[O-]` the TGI was over 100 µM.
In the case of `COC(=O)c1c(O)ccc2[nH]c(C)c(C#N)c12`, the GI50 was 24.3 µM and the TGI was over 100 µM.
For `Nc1ccc(SC23CC4CC(CC(C4)C2)C3)cc1`, the TGI was over 100 µM.

These compounds were tested on RXF 393 renal (assay: growth of human tumour cells (NCI), 48 h).
`Cc1ccc([N+](=O)[O-])c2c(NCCCN(C)C)ccnc12` gave a TGI of over 100 µM.
`FC(F)(F)c1ccc2c(Nc3cccc(C4CC(c5ccccc5)=NN4c4ccc(Cl)cc4)c3)ccnc2c1` (stereo not drawn) showed a GI50 of 4.82 µM and a TGI of 20.1 µM.
With `COc1cc(-c2cn(C)c(=O)c(C)c2C)cc(OC)c1CN1CC[C@H](N2CCN(c3ccc(N[C@H]4CCC(=O)NC4=O)cc3F)CC2)C(F)(F)C1` the GI50 was 11.1 µM and the TGI was 25 µM.
Compound `CNC(=O)c1cn(C[C@H](F)CCc2ccc(NC(=O)Cc3cc(OC4CC(F)(F)C4)cc(C)n3)nn2)nn1` has a GI50 of over 31.5 µM and a TGI of over 100 µM.
Compound `Cc1sc(C)c(-c2ccc(CO)o2)c1-c1ccc(CO)o1` has a GI50 of 0.316 µM and a TGI of over 100 µM.
For `CCCS(=O)(=O)c1nc(NC2CC2)cc(-c2ccc3c(ccn3C3CC(C)(C)NC(C)(C)C3)c2)n1`, the GI50 was 1.64 µM and the TGI was 3.44 µM.
For `COC(=O)c1c(O)ccc2[nH]c(C)c(C#N)c12`, the GI50 was 22 µM and the TGI was over 100 µM.
With `Nc1ccc(SC23CC4CC(CC(C4)C2)C3)cc1` the TGI was over 100 µM.

These compounds were tested on NCI-H226 lung (assay: growth of human tumour cells (NCI), 48 h).
For `Cc1ccc([N+](=O)[O-])c2c(NCCCN(C)C)ccnc12`, the TGI was over 100 µM.
With `FC(F)(F)c1ccc2c(Nc3cccc(C4CC(c5ccccc5)=NN4c4ccc(Cl)cc4)c3)ccnc2c1` (stereo not drawn) the GI50 was 15 µM and the TGI was 36.2 µM.
`COc1cc(-c2cn(C)c(=O)c(C)c2C)cc(OC)c1CN1CC[C@H](N2CCN(c3ccc(N[C@H]4CCC(=O)NC4=O)cc3F)CC2)C(F)(F)C1` gave a GI50 of 13.7 µM and a TGI of 29.1 µM.
`CCCNCc1cc(C)cc2c1nc(N1CCNCC1)n2Cc1cc(C)c(F)c(C)c1` showed a GI50 of 19.1 µM and a TGI of 38.2 µM.
`CNC(=O)c1cn(C[C@H](F)CCc2ccc(NC(=O)Cc3cc(OC4CC(F)(F)C4)cc(C)n3)nn2)nn1` showed a TGI of over 100 µM.
`Cc1ccsc1C(=S)Nc1ccc(Cl)c(C(=O)OC(C(C)C)C(C)C)c1` showed a TGI of over 100 µM.
With `Cc1sc(C)c(-c2ccc(CO)o2)c1-c1ccc(CO)o1` the GI50 was 0.124 µM and the TGI was 0.388 µM.
With `COc1cc(/C=C2\CC3C4CC=C5CC(N6CCCC6)CC[C@]5(C)C4CC[C@]3(C)C2OC(C)=O)ccc1OCCN1CCCC1` (stereo partly drawn) the GI50 was 3.19 µM and the TGI was 10.1 µM.
Work on `CCCS(=O)(=O)c1nc(NC2CC2)cc(-c2ccc3c(ccn3C3CC(C)(C)NC(C)(C)C3)c2)n1` yielded a GI50 of 1.74 µM and a TGI of 3.71 µM.
In the case of `Cc1ncc([N+](=O)[O-])n1CCNC(=O)CCCCn1ccnc1[N+](=O)[O-]`, the TGI was over 100 µM.
`COC(=O)c1c(O)ccc2[nH]c(C)c(C#N)c12` gave a GI50 of 28.5 µM and a TGI of 70.6 µM.

These compounds were tested on MOLT-4 leukemia (assay: growth of human tumour cells (NCI), 48 h).
`Cc1ccc([N+](=O)[O-])c2c(NCCCN(C)C)ccnc12` was tested, and the TGI was over 100 µM.
For `FC(F)(F)c1ccc2c(Nc3cccc(C4CC(c5ccccc5)=NN4c4ccc(Cl)cc4)c3)ccnc2c1` (stereo not drawn), the GI50 was 3.6 µM and the TGI was 19.5 µM.
`COc1cc(-c2cn(C)c(=O)c(C)c2C)cc(OC)c1CN1CC[C@H](N2CCN(c3ccc(N[C@H]4CCC(=O)NC4=O)cc3F)CC2)C(F)(F)C1` showed a GI50 of 21.2 µM and a TGI of over 100 µM.
Work on `CCCNCc1cc(C)cc2c1nc(N1CCNCC1)n2Cc1cc(C)c(F)c(C)c1` yielded a GI50 of 1.8 µM and a TGI of 4.39 µM.
Compound `CNC(=O)c1cn(C[C@H](F)CCc2ccc(NC(=O)Cc3cc(OC4CC(F)(F)C4)cc(C)n3)nn2)nn1` has a GI50 of over 93.5 µM and a TGI of over 100 µM.
`Cc1ccsc1C(=S)Nc1ccc(Cl)c(C(=O)OC(C(C)C)C(C)C)c1` gave a TGI of 55.6 µM.
With `Cc1sc(C)c(-c2ccc(CO)o2)c1-c1ccc(CO)o1` the GI50 was 48.9 µM and the TGI was over 100 µM.
Work on `COc1cc(/C=C2\CC3C4CC=C5CC(N6CCCC6)CC[C@]5(C)C4CC[C@]3(C)C2OC(C)=O)ccc1OCCN1CCCC1` (stereo partly drawn) yielded a GI50 of 2.18 µM and a TGI of 4.48 µM.
`CCCS(=O)(=O)c1nc(NC2CC2)cc(-c2ccc3c(ccn3C3CC(C)(C)NC(C)(C)C3)c2)n1` was tested, and the GI50 was 2.02 µM and the TGI was 4.57 µM.
`Cc1ncc([N+](=O)[O-])n1CCNC(=O)CCCCn1ccnc1[N+](=O)[O-]` was tested, and the TGI was over 100 µM.
`COC(=O)c1c(O)ccc2[nH]c(C)c(C#N)c12` showed a GI50 of 26.7 µM and a TGI of over 100 µM.

What follows are compounds tested on HL-60(TB) leukemia (assay: growth of human tumour cells (NCI), 48 h).
`Cc1ccc([N+](=O)[O-])c2c(NCCCN(C)C)ccnc12` showed a TGI of over 100 µM.
Compound `FC(F)(F)c1ccc2c(Nc3cccc(C4CC(c5ccccc5)=NN4c4ccc(Cl)cc4)c3)ccnc2c1` (stereo not drawn) has a GI50 of 4.04 µM and a TGI of 18.8 µM.
Compound `COc1cc(-c2cn(C)c(=O)c(C)c2C)cc(OC)c1CN1CC[C@H](N2CCN(c3ccc(N[C@H]4CCC(=O)NC4=O)cc3F)CC2)C(F)(F)C1` has a GI50 of 2.92 µM and a TGI of over 100 µM.
`CCCNCc1cc(C)cc2c1nc(N1CCNCC1)n2Cc1cc(C)c(F)c(C)c1` showed a GI50 of 1.76 µM and a TGI of 3.8 µM.
In the case of `CNC(=O)c1cn(C[C@H](F)CCc2ccc(NC(=O)Cc3cc(OC4CC(F)(F)C4)cc(C)n3)nn2)nn1`, the GI50 was over 100 µM and the TGI was over 100 µM.
With `Cc1ccsc1C(=S)Nc1ccc(Cl)c(C(=O)OC(C(C)C)C(C)C)c1` the TGI was 31.5 µM.
With `Cc1sc(C)c(-c2ccc(CO)o2)c1-c1ccc(CO)o1` the GI50 was 52.5 µM and the TGI was over 100 µM.
Compound `COc1cc(/C=C2\CC3C4CC=C5CC(N6CCCC6)CC[C@]5(C)C4CC[C@]3(C)C2OC(C)=O)ccc1OCCN1CCCC1` (stereo partly drawn) has a GI50 of 2.05 µM and a TGI of 4.36 µM.
In the case of `CCCS(=O)(=O)c1nc(NC2CC2)cc(-c2ccc3c(ccn3C3CC(C)(C)NC(C)(C)C3)c2)n1`, the GI50 was 1.75 µM and the TGI was 3.73 µM.
`Cc1ncc([N+](=O)[O-])n1CCNC(=O)CCCCn1ccnc1[N+](=O)[O-]` showed a TGI of over 100 µM.
`Nc1ccc(SC23CC4CC(CC(C4)C2)C3)cc1` showed a TGI of over 100 µM.
